Assay results published in patent US20200131129A1, “FARNESOID X RECEPTOR AGONISTS AND USES THEREOF” (Metacrine, Inc., priority 2017, published 2020).

The molecules below were run against T1, hFXR (Homo sapiens, UniProt Q96RI1) (assay: In Vitro FXR Assay (TK): hFXR/hRXR TK-ECRE-luc reporter in transfected CV-1 cells). Settings: CV-1 cells transfected with hFXR, hRXR, 18 hrs incubation, luminescence, maximum efficacy <25% of Fexarmine control also classified as ‘+’.
T1 construct: expressed in transfected cells; host or cells: CV-1 cells
T1 sequence (Q96RI1 1-486): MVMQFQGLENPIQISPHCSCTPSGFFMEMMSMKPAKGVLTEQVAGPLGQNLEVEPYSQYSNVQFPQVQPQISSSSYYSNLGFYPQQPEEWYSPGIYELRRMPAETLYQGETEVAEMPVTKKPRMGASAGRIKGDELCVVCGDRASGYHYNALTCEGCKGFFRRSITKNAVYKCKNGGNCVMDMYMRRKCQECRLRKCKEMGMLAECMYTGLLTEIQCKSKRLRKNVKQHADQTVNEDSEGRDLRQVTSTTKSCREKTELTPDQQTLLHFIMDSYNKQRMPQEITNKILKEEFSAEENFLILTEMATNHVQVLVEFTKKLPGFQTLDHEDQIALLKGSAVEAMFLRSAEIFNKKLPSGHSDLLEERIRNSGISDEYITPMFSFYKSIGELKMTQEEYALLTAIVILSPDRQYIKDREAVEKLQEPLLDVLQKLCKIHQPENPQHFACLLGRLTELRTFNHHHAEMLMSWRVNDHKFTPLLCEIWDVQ
T1 sequence (P19793 1-462 partner): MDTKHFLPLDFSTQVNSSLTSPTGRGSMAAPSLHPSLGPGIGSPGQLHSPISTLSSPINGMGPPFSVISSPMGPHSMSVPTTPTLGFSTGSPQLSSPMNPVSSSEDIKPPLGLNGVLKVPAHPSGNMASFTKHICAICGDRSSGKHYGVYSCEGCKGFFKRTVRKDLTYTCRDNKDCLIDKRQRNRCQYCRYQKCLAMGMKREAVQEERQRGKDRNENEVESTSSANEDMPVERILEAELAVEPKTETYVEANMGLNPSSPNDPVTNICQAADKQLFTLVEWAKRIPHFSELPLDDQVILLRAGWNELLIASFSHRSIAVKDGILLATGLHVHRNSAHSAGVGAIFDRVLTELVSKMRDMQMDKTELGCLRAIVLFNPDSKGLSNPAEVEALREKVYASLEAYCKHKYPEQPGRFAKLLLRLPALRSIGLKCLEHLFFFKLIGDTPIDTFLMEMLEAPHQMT
Format: cell-based
Protocol: Example B-1: In Vitro FXR Assay (TK)
CV-1 cells were seeded at a density of 2,000,000 cells in a T175 flask with DMEM+10% charcoal double-stripped FBS and incubated at 37° C. in 5% CO2 for 18 h (O/N).
After 18 h of incubation, the medium in the T175 flask was changed with fresh DMEM+10% charcoal super-stripped serum. In a polypropylene tube, 2500 μL OptiMEM (Life Technologies, Cat #31985-062) was combined with expression plasmids for hFXR, hRXR, TK-ECRE-luc and pCMX-YFP. The tube was then briefly vortexed and incubated at room temperature for 5 minutes. Transfection reagent (X-tremeGENE HP from Roche, Cat #06 366 236 001) was added to the OptiMEM/plasmid mixture vortexed and incubated at room temperature for 20 minutes. Following incubation, the transfection reagent/DNA mixture complex was added to cells in the T175 flask and the cells were incubated at 37° C. in 5% CO2 for 18 h (0/N).
Compounds were serially diluted in DMSO and added to transfected CV-1 cells. The cells were then incubated for 18 hrs. The next day cells were lysed and examined for luminescence.

Row | SMILES | EC50 [nM]
1 | COc1ccc([C@H]2CC[C@H](CN(c3cccc(-c4ccc(N(C)C)nc4)c3)C(=O)[C@H]3CC[C@H](O)CC3)CC2)cc1C [Compound 1, trans-N-(3-(6-(Dimethylamino)pyridine-3-yl)phenyl)-4-hydroxy-N-((trans-4-(4-methoxy-3-methylphenyl)cyclohexyl)methyl)cyclohexanecarboxamide] | ≤ 500
2 | COc1ccc(-c2cccc(N(C[C@H]3CC[C@H](c4ccc(OC)c(C)c4)CC3)C(=O)[C@H]3CC[C@H](O)CC3)c2)cn1 [Compound 1.01, trans-4-Hydroxy-N-((trans-4-(4-methoxy-3-methylphenyl)cyclohexyl)methyl)-N-(3-(6-methoxypyridin-3-yl)phenyl)cyclohexanecarboxamide] | ≤ 500
3 | COc1ncc(-c2cccc(N(C[C@H]3CC[C@H](c4ccc(OC)c(C)c4)CC3)C(=O)[C@H]3CC[C@H](O)CC3)c2)cn1 [Compound 1.02, trans-4-Hydroxy-N-((trans-4-(4-methoxy-3-methylphenyl)cyclohexyl)methyl)-N-(3-(2-methoxypyrimidin-5-yl)phenyl)cyclohexanecarboxamide] | ≤ 500
4 | COc1ccc(-c2cccc(N(C[C@H]3CC[C@H](c4ccc(OC)c(C)c4)CC3)C(=O)[C@H]3CC[C@H](O)CC3)c2)nc1 [Compound 1.03, trans-4-Hydroxy-N-((trans-4-(4-methoxy-3-methylphenyl)cyclohexyl)methyl)-N-(3-(5-methoxypyridin-2-yl)phenyl)cyclohexanecarboxamide] | ≤ 500
5 | COc1ccc([C@H]2CC[C@H](CN(c3cccc(-c4ccc(C(F)(F)F)nc4)c3)C(=O)[C@H]3CC[C@H](O)CC3)CC2)cc1C [Compound 1.04, trans-4-Hydroxy-N-((trans-4-(4-methoxy-3-methylphenyl)cyclohexyl)methyl)-N-(3-(6-(trifluoromethyl)pyridine-3-yl)phenyl)cyclohexanecarboxamide] | ≤ 500
6 | COc1ccc([C@H]2CC[C@H](CN(c3cccc(-c4cncc(C(F)(F)F)c4)c3)C(=O)[C@H]3CC[C@H](O)CC3)CC2)cc1C [Compound 1.05, trans-4-Hydroxy-N-((trans-4-(4-methoxy-3-methylphenyl)cyclohexyl)methyl)-N-(3-(5-(trifluoromethyl)pyridine-3-yl)phenyl)cyclohexanecarboxamide] | ≥ 1000
7 | COc1ccc([C@H]2CC[C@H](CN(c3cccc(-c4ccc(OC(C)C)nc4)c3)C(=O)[C@H]3CC[C@H](O)CC3)CC2)cc1C [Compound 1.06, trans-4-Hydroxy-N-(3-(6-isopropoxypyridin-3-yl)phenyl)-N-((trans-4-(4-methoxy-3-methylphenyl)cyclohexyl)methyl)cyclohexanecarboxamide] | ≤ 500
8 | COc1ccc([C@H]2CC[C@H](CN(c3cccc(-c4ccc(C5CC5)nc4)c3)C(=O)[C@H]3CC[C@H](O)CC3)CC2)cc1C [Compound 1.07, trans-N-(3-(6-Cyclopropylpyridin-3-yl)phenyl)-4-hydroxy-N-((trans-4-(4-methoxy-3-methylphenyl)cyclohexyl)methyl)cyclohexanecarboxamide] | ≤ 500
9 | COc1ccc(-c2cccc(N(C[C@H]3CC[C@H](c4ccc(OC)c(C)c4)CC3)C(=O)[C@H]3CC[C@H](O)CC3)c2)cc1C [Compound 1.08, trans-4-Hydroxy-N-(4′-methoxy-3′-methyl-[1,1′-biphenyl]-3-yl)-N-((trans-4-(4-methoxy-3-methylphenyl)cyclohexyl)methyl)cyclohexanecarboxamide] | 500 to 1000
10 | COc1ccc([C@H]2CC[C@H](CN(c3cccc(-c4cnc(N(C)C)nc4)c3)C(=O)[C@H]3CC[C@H](O)CC3)CC2)cc1C [Compound 1.09, trans-N-(3-(2-(Dimethylamino)pyrimidin-5-yl)phenyl)-4-hydroxy-N-((trans-4-(4-methoxy-3-methylphenyl)cyclohexyl)methyl)cyclohexanecarboxamide] | ≤ 500
11 | COc1ccc([C@H]2CC[C@H](CN(c3cccc(-c4ccc(N5CCCC5)nc4)c3)C(=O)[C@H]3CC[C@H](O)CC3)CC2)cc1C [Compound 1.10, trans-4-Hydroxy-N-((trans-4-(4-methoxy-3-methylphenyl)cyclohexyl)methyl)-N-(3-(6-(pyrrolidin-1-yl)pyridine-3-yl)phenyl)cyclohexanecarboxamide] | ≤ 500
12 | COc1ccc([C@H]2CC[C@H](CN(c3cc(-c4ccc(N(C)C)nc4)ccn3)C(=O)[C@H]3CC[C@H](O)CC3)CC2)cc1C [Compound 1.11, trans-N-(6-(Dimethylamino)-[3,4′-bipyridin]-2′-yl)-4-hydroxy-N-((trans-4-(4-methoxy-3-methylphenyl)cyclohexyl)methyl)cyclohexanecarboxamide] | ≤ 500

More lines, now with the values ahead:

Row | EC50 [nM] | SMILES
13 | ≤ 500 | COc1cnc(-c2cccc(N(C[C@H]3CC[C@H](c4ccc(OC)c(C)c4)CC3)C(=O)[C@H]3CC[C@H](O)CC3)c2)nc1 [Compound 2.01, trans-4-Hydroxy-N-((trans-4-(4-methoxy-3-methylphenyl)cyclohexyl)methyl)-N-(3-(5-methoxypyrimidin-2-yl)phenyl)cyclohexanecarboxamide]
14 | ≤ 500 | COc1cnc(-c2cccc(N(C[C@H]3CC[C@H](c4ccc(OC)c(C)c4)CC3)C(=O)[C@H]3CC[C@H](O)CC3)c2)cn1 [Compound 2.02, trans-4-Hydroxy-N-((trans-4-(4-methoxy-3-methylphenyl)cyclohexyl)methyl)-N-(3-(5-methoxypyrazin-2-yl)phenyl)cyclohexanecarboxamide]
15 | ≤ 500 | COc1ccc([C@H]2CC[C@H](CN(c3cccc(-c4ccc(C(C)C)nc4)c3)C(=O)[C@H]3CC[C@H](O)CC3)CC2)cc1C [Compound 2.03, trans-4-Hydroxy-I-(3-(6-isopropylpyridin-3-yl)phenyl)-N-((trans-4-(4-methoxy-3-methylphenyl)cyclohexyl)methyl)cyclohexanecarboxamide]
16 | ≥ 1000 | COc1ccc([C@H]2CC[C@H](CN(c3cccc(-c4nnc(C)s4)c3)C(=O)[C@H]3CC[C@H](O)CC3)CC2)cc1C [Compound 2.04, trans-4-Hydroxy-N-((trans-4-(4-methoxy-3-methylphenyl)cyclohexyl)methyl)-N-(3-(5-methyl-1,3,4-thiadiazol-2-yl)phenyl)cyclohexanecarboxamide]
17 | ≥ 1000 | COc1ccc([C@H]2CC[C@H](CN(c3cccc(-c4cn(C)nn4)c3)C(=O)[C@H]3CC[C@H](O)CC3)CC2)cc1C [Compound 2.05, trans-4-Hydroxy-N-((trans-4-(4-methoxy-3-methylphenyl)cyclohexyl)methyl)-N-(3-(1-methyl-1H-1,2,3-triazol-4-yl)phenyl)cyclohexanecarboxamide]
18 | ≤ 500 | COc1ccc([C@H]2CC[C@H](CN(c3cccc(-c4cc(C)ns4)c3)C(=O)[C@H]3CC[C@H](O)CC3)CC2)cc1C [Compound 2.06, trans-4-Hydroxy-N-((trans-4-(4-methoxy-3-methylphenyl)cyclohexyl)methyl)-N-(3-(3-methylisothiazol-5-yl)phenyl)cyclohexanecarboxamide]
19 | 500 to 1000 | COc1ccc([C@H]2CC[C@H](CN(c3cccc(-c4ccsn4)c3)C(=O)[C@H]3CC[C@H](O)CC3)CC2)cc1C [Compound 2.07, trans-4-Hydroxy-N-(3-(isothiazol-3-yl)phenyl)-N-((trans-4-(4-methoxy-3-methylphenyl)cyclohexyl)methyl)cyclohexanecarboxamide]
20 | 500 to 1000 | COc1ccc([C@H]2CC[C@H](CN(c3cccc(-c4nc(C)ns4)c3)C(=O)[C@H]3CC[C@H](O)CC3)CC2)cc1C [Compound 2.08, trans-4-Hydroxy-N-((trans-4-(4-methoxy-3-methylphenyl)cyclohexyl)methyl)-N-(3-(3-methyl-1,2,4-thiadiazol-5-yl)phenyl)cyclohexanecarboxamide]
